Assay results reported in patent US6376211B1, “Agents and methods for inhibiting F1/F0 ATPase” (XOMA Technology Ltd., priority 1999, dated 2002).

What was measured:
[1] = test system: whole cells; test: Membrane potential indicator dye assay of whole cells (general description); format: cell-based; details: retention of the dye notwithstanding onset of loss of viability at the same concentration
Excerpt: (§1) The effect of test compounds on ATP synthase activity of whole cells can also optionally be assayed using any membrane potential indicator dye or metabolic oxidation-reduction indicator dye known in the art. See Loew, Chapter 8 in Biomembrane Electrochemistry, Blank and Vodyanoy, eds., American Chemical Society, Washington, DC (1994), pages 151-173. Particularly preferred dyes are membrane potential dyes such as DiOC6(3), JC-1, rhodamine 123, or MitoTracker® reduced dyes [Molecular Probes, Eugene, Oreg.]. […] Other preferred dyes are metabolic oxidation-reduction indicator dyes such as Alamar Blue™ [AccuMed Int'l, Westlake, Ohio]. […] See U.S. Provisional Application Ser. No. 60/143,290 filed Jul. 12, 1999 and corresponding co-owned, concurrently filed U.S. application Ser. No. 09/543,955, both of which are incorporated herein by reference and U.S. Provisional Application Ser. No. 60/143,485 filed Jul. 12, 1999 and corresponding U.S. application Ser. No. 09/404,926 filed Sep. 24, 1999 and International Application No. PCT/US99/22361 filed Sep. 24, 1999, all of which are incorporated herein by reference. Iterative screening for compound selection may employ one or combination of assays for testing.

[2] = test system: E. coli O111:B4; test: Membrane potential indicator dye DiOC6(3) assay; format: cell-based
Method: (§2) The effect of antibacterial BPI protein products on the activity of bacterial ATP synthase as measured by a metabolic oxidation-reduction indicator dye and a membrane potential indicator dye was determined as described in Example 2 of U.S. Provisional Application Ser. No. 60/143,290 filed Jul. 12, 1999 and corresponding co-owned, concurrently filed U.S. application Ser. No. 09/543,955, both of which are incorporated herein by reference and Example 9 of U.S. Provisional Application Ser. No. 60/143,485 filed Jul. 12, 1999 and corresponding U.S. application Ser. No. 09/404,926 filed Sep. 24, 1999 and International Application No. PCT/US99/22361 filed Sep. 24, 1999, all of which are incorporated herein by reference.

[3] = test system: E. coli; test: Metabolic oxidation-reduction indicator dye Alamar Blue assay; format: cell-based
Method: as §2

[4] = test system: E. coli O111:B4; test: In vitro bactericidal activity; format: cell-based
[5] = test system: whole cells; test: Metabolic oxidation-reduction indicator dye (Alamar Blue) assay of whole cells (general description); format: cell-based; details: at a less than fully cytotoxic concentration
Excerpt: as §1

[6] = target: E. coli ATP synthase; details: bacterial membrane preparations; about ... and higher
Method: The effect of antibacterial BPI protein products on the ATP synthesis activity of an E. coli ATP synthase was determined as follows. Bacterial membranes were prepared as follows. A 400 mL culture of E. coli was grown overnight in TSB at 37° C. with shaking. Cells were harvested by centrifugation for 10 minutes at 1000×g, followed by washing with 20 mL of PBS and recentrifugation. Cells were resuspended in 4 ml of 25 mM HEPES, pH 7.6, 0.1 M KCl, 0.1 M EDTA, 12.5 mM MgCl2, 10% glycerol, 0.1% NP40. Then 50 μl of lysozyme (50 mg/ml) was added and the cells were incubated for 30 minutes on ice. Cells were disrupted by sonication in 3×30-second pulses. Cells were placed on ice between pulses. DNAse I was added to a 10 μg/mL final concentration (GIBCO Life Technologies, Gaithersburg, Md.) and the homogenate was left on ice for 30 minutes. […] The final pellet was resuspended in 2 mL 10 mM Tris-HC1, pH 7.0, 0.1 mM EDTA, 20% glycerol and protein concentration was determined by standard Bradford assay.
In a 96 well plate (Microlite 1, DYNEX Technologies, Chantilly Va.), 25 μg bacterial membranes were diluted into 100 μl of 55.5 mM Tris-HC1, pH 7.8, 0.222 mM MgSO4 plus the compound to be tested (XMP.391 (SEQ ID NO: 4) and rBPI21 at concentrations ranging from 40 μg/mL to 0.625 μg/mL). […] Assays were read in Endpoint mode with 30 reads per well.

[7] = target: T1, mammalian mitochondrial ATP synthase; test: Phosphatase activity of ATP synthase in mitochondrial membrane preparations (mouse liver); format: biochemical; details: 1.35 μM rBPI21, 0.082 and 0.482 μM XMP.391, 0.076 and 0.553 μM XMP.416
T1 construct: ATP synthase enzymic activity in mitochondrial preparations; from tissue; host or cells: mouse liver mitochondria, deoxycholate-lysed membrane pellet
Method: The effect of BPI protein products on ATP synthase enzymic activity in mitochondrial preparations was evaluated. Mitochondrial membrane preparations were prepared as follows. Male laboratory mice (Mus musculus) were sacrificed by cervical dislocation and their livers were immediately excised. The gall bladder and connective tissues were removed and the livers were washed in 0.25 M sucrose. Wet liver weight was determined after blotting the washed liver on absorbent paper. All subsequent steps of the fractionation procedure were performed on ice. The weighted livers were then homogenized with a Potter Elvehjem tissue homogenizer and six passes of a teflon pestle in 9 volumes of 0.25 M sucrose with protease inhibitors (2 μg/mL pepstatin A, 2 μg/mL aprotinin and 1 mM phenylmethylsulfonyl fluoride (PMSF). Liver homogenates were then centrifuged in a Beckman (Fullerton, Calif.) J2-21 centrifuge for 10 minutes at 600×g. The 600×g pellet (nuclei, unbroken cells and connective tissue) was discarded and the supernatant was subjected to further centrifugation. The 600×g supernatant was centrifuged at 7000×g for 10 minutes to yield a crude mitochondrial pellet.
Crude mitochondria were resuspended in 3 volumes of the original liver weight with 0.25 M sucrose and centrifuged at 7000×g for 10 minutes. The supernatant was discarded and the procedure was repeated. […]

[8] = test system: bacterial growth; details: cited from earlier work

Substance: XMP.365: BPI-derived peptide, SEQ ID NO: 3; structure described in U.S. Pat. No. 5,858,974 (KWLIQLFHKK)
- pattern of accumulation of membrane potential dye in cells [1]: accumulation in cells of membrane potential dye in a peptide concentration-dependent manner
- accumulation and retention of membrane potential dye [2]: produced an accumulation and retention of the dye despite cell death
- apparent metabolic activity relative to untreated controls [3]: apparent increased metabolic activity
- in vitro bactericidal activity [4]: has in vitro bactericidal activity against this strain
- pattern of metabolic oxidation-reduction activity relative to control cells [5]: increased metabolic oxidation-reduction activity relative to control cells

Substance: XMP.391: BPI-derived peptide, SEQ ID NO: 4 (KVGWLIQLFHKK)
- concentration at which synthesis of ATP from ADP is inhibited in a dose-dependent manner [6]: ≥ 1 µg/mL
- apparent metabolic activity relative to untreated controls [3]: apparent increased metabolic activity
- inhibition of phosphatase activity of ATP synthase [7]: inhibited the phosphatase activity
- pattern of metabolic oxidation-reduction activity relative to control cells [5]: increased metabolic oxidation-reduction activity relative to control cells

Substance: XMP.416: BPI-derived peptide, SEQ ID NO: 5 (KWLIQLFHKK)
- inhibition of phosphatase activity of ATP synthase [7]: inhibited the phosphatase activity
- pattern of metabolic oxidation-reduction activity relative to control cells [5]: increased metabolic oxidation-reduction activity relative to control cells

Substance: gentamicin
- concentration required to produce a therapeutic effect [8]: 8 µg/mL
